In one series the target is T1, human GLP-1 receptor (Homo sapiens, UniProt P43220).
T1 construct: expressed in transfected cells; host or cells: BHK (parent line BHKTS13), BHK CRE luc2P hGLP-1R clone #6
The series is described as follows: In vitro potency (CRE luciferase; whole cells), BHK CRE luc2P hGLP-1R. It counts as cell-based. The conditions noted are these: 0.2% HSA. The procedure:
(§1) In Vitro Potency (CRE Luciferase; Whole Cells)
(§2) The in vitro potency is the measure of human GIP, GLP-1 or glucagon receptor activation, respectively, in a whole cell assay.
(§3) In vitro potency was determined by measuring the response of the human GIP, GLP-1 or glucagon receptor in a reporter gene assay in individual cell lines. […] When the respective receptor is activated it results in the production of cAMP, which in turn results in the luciferase protein being expressed. When assay incubation is completed the luciferase substrate (luciferin) is added and the enzyme converts luciferin to oxyluciferin to produce bioluminescence. The luminescence is measured as the readout for the assay.
(§4) The cells were derived from a clone containing the CRE luciferase element and were established by further transfection with the respective receptor to obtain the current clone.
(§5) The cells were cultured at 5% CO2 in Cell Culture Medium. They were aliquoted and stored in liquid nitrogen. The cells were kept in passage and were seeded out the day before each assay.
(§6) The Assay Buffer consisted of 1% ovalbumin and 0.1% Pluronic F-68 in Assay Medium with the addition of human serum albumin at twice the indicated concentrations.
(§7) 1) Cells were plated at 5000 cells/well and incubated overnight.
(§8) 2) Cells were washed three times in PBS.
(§9) 3) Assay Medium (50 μl aliquot) with or without serum albumin was added to each well in the assay plate.
(§10) 4) Stocks of the test compounds and reference compounds were diluted to a concentration of 0.2 μM in Assay Buffer. […] 8) The cells were washed three times with PBS plus some liquid in each well. 9) A 100 μl aliquot of steadylite plus reagent was added to each well of the assay plate (reagent was light sensitive). 10) Each assay plate was covered with aluminum foil to protect it from light and shaken for 30 min at room temperature. 11) Each assay plate was read in a microtiter plate reader. Calculations and Results
(§11) The data from the microtiter plate reader was transferred to GraphPad Prism software. The software performs a non-linear regression (log(agonist) vs response).
(§12) A minimum of two replicates was measured for each sample. The reported values are averages of the replicates.

In another series the target is T2, human GIP receptor (Homo sapiens, UniProt P48546).
T2 construct: expressed in transfected cells; host or cells: BHK (parent line BHKTS13), BHK CRE luc2P hGIPR clone #5
T2 sequence (P48546 22-466): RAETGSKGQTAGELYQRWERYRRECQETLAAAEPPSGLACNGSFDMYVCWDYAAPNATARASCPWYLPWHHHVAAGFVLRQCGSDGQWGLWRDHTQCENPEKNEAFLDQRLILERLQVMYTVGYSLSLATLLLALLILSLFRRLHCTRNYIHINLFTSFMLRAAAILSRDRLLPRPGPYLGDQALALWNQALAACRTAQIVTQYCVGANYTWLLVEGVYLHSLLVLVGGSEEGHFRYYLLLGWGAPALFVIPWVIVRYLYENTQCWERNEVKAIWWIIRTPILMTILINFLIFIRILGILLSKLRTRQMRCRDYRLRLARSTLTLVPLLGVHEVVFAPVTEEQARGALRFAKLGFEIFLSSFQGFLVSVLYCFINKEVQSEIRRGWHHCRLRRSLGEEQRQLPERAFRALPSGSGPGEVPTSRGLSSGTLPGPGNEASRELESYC
Description: In vitro potency (CRE luciferase; whole cells), BHK CRE luc2P hGIPR. It counts as cell-based. The conditions noted are these: 0.2% HSA. On the procedure: as §1, §2, §3, §4, §5, §6, §7, §8, §9, §10, §11, §12

A short description of series [1]: Chemical stability: purity loss by LCMS. It counts as physicochemical. The conditions noted are these: 37° C., 4 weeks, 250 μM, pH 7.4. On the procedure: The aim of this study is to determine the chemical stability of GIP derivative compositions. As a measure of stability of the GIP derivative composition, the formation of high molecular weight peptide formation (% HMWP) as a function of time was analysed by size-exclusion chromatography (SEC-MS). Further, the purity loss of the GIP derivative compositions was measured by LCMS. Samples for chemical stability assays were freshly prepared before each assay. […] The pH of the sample was adjusted to the desired value using appropriate amounts of concentrated NaOH and HCl. […] The column oven was kept at 55° C. […] The solvents were pumped from a binary solvent manager system and mixed on the high pressure side in a mixer with a volume of 50 μl. The gradient and flow can be seen in table 4: [table] A Flow-through-needle auto sampler at 8° C. was used to inject 1 μl of each sample. The effluent passed through a tunable UV detector (TUV) tuned to 215 nm. The outlet from the UV detector passed to the electrospray source of the mass spectrometer. The capillary was held at 3 kV and dry nitrogen gas was purged at a flow of 750 I/h and a temperature of 250° C. The source block was kept at 120° C. and the large bore cone was flushed with nitrogen at 50 I/h with standard electrode potentials on the rest of the instrument. The MS was operated in high resolution mode with a nominal resolution of 35000. The ToF analyser was operated in ADC mode with an m/z window from 100-2000.

Series [2] can be described thus: Chemical stability: HMWP formation by SEC-MS. It counts as physicochemical. The conditions noted are these: 37° C., 4 weeks, 250 μM, pH 7.4. On the procedure:
The aim of this study is to determine the chemical stability of GIP derivative compositions. As a measure of stability of the GIP derivative composition, the formation of high molecular weight peptide formation (% HMWP) as a function of time was analysed by size-exclusion chromatography (SEC-MS). Further, the purity loss of the GIP derivative compositions was measured by LCMS. Samples for chemical stability assays were freshly prepared before each assay. […] The pH of the sample was adjusted to the desired value using appropriate amounts of concentrated NaOH and HCl. […] Formation of covalent oligomers (HMWPs) was analysed and identified by a SEC-MS method. […] The LC system was coupled to both a TUV detector operated at 215 nm, 10 Hz and a high resolution QToF mass spectrometer from Waters (Synapt G2S) operated in positive ion mode and m/z range of 100 to 4000 with normal resolution setting. Lock mass correction against Leu-Enkephalin was done every 31 sec. Spectra were processed in MassLynx version 4.1 and MaxEnt deconvoluted.

The nature of series [3]: Dynamic Light Scattering Stability Index (DLS-SI). It counts as physicochemical.
A short description of series [4]: ThT fibrillation assay (physical stability). It is filed as physicochemical. To be noted: 250 μM, pH 7.4, 37° C., 45 hours of incubation. The procedure:
The Thioflavin T assay was performed as outlined in Schlein (2017), AAPS J, 19(2), 397-408.
This has traditionally been measured by visual inspection of the sample. However, that kind of measurement is very cumbersome and depending on the observer. Therefore, the application of a small molecule indicator probe is much more advantageous. Thioflavin T (ThT) is such a probe and has a distinct fluorescence signature when binding to fibrils [Naiki et al. (1989) Anal. Biochem. 177, 244-249; LeVine (1999) Methods. Enzymol. 309, 274-284].
The time course for fibril formation can be described by a sigmoidal curve with the following expression [Nielsen et al. (2001) Biochemistry 40, 6036-6046]:
Here, F is the ThT fluorescence at the time t. The constant t0 is the time needed to reach 50% of maximum fluorescence. The two important parameters describing fibril formation are the lag-time calculated by t0−2τ and the apparent rate constant kapp 1/τ.
Few of those intermediates nucleate to form a template onto which further intermediates may assembly and the fibrillation proceeds. The lag-time corresponds to the interval in which the critical mass of nucleus is built up and the apparent rate constant is the rate with which the fibril itself is formed.
Samples are prepared freshly before each assay. The drug substance was solved with 250 μM of the GIP derivative in 8 mM phosphate, 14 mg/mL propylene glycol, 58 mM phenol, pH 7.4. The pH of the sample was adjusted to the desired value using appropriate amounts of concentrated NaOH and HCl. Thioflavin T was added to the samples from a stock solution in H2O to a final concentration of 1 μM.
Sample aliquots of 200 μl were placed in each well of a 96 well microtiter plate (Packard OptiPlate™-96, white polystyrene). Four replica of each sample (corresponding to one test condition) was placed in one column of wells. The plate was sealed with Scotch Pad (Qiagen).
Incubation, shaking and measurement of the ThT fluorescence emission were done in a Fluoroskan Ascent FL fluorescence platereader (Thermo Labsystems). […] Fluorescence measurement was done using excitation through a 444 nm filter and measurement of emission through a 485 nm filter.
Each run was initiated by incubating the plate at the assay temperature for 10 min. The plate was measured every 20 minutes for a desired period of time. Between each measurement, the plate was shaken and heated as described.
After completion of the ThT assay the replica of each sample was pooled and centrifuged at 20000 rpm for 30 minutes at 18° C. The supernatant was filtered through a 0.22 μm filter and an aliquot was transferred to a HPLC vial. The concentration of the filtered sample relative to the initial sample (in percentage) was reported as the recovery.
The measurement points were saved in Microsoft Excel format for further processing and curve drawing and fitting was performed using GraphPad Prism. […] The data points were a mean of the four replica and shown with standard deviation error bars. Only data obtained in the same experiment (i.e. samples on the same plate) were presented in the same graph ensuring a relative measure of fibrillation between experiments.
The data set may be fitted to Eq. (1).

Setting [5] is: 250 μM, pH 7.4, 4 weeks at 25° C.

“Also recorded” adds a separate entry of the source. *1 amine or outer side, *2 acyl side, *3 side chain or, on linkers, in order; H or OH if unused. Where no end group is shown, it is not given here. Side-chain parts run from the residue outwards. [ ]: non-standard residue; d: D form. The star is where a group is joined. C18 diacid = O=C(O)CCCCCCCCCCCCCCCCC(=O)*; γGlu = O=C(O)[C@H](CCC(=O)[*:2])N[*:1]; AEEA = NCCOCCOCC(=O)O; Aib = CC(C)(N)C(=O)O

T1 sequence (P43220 24-463): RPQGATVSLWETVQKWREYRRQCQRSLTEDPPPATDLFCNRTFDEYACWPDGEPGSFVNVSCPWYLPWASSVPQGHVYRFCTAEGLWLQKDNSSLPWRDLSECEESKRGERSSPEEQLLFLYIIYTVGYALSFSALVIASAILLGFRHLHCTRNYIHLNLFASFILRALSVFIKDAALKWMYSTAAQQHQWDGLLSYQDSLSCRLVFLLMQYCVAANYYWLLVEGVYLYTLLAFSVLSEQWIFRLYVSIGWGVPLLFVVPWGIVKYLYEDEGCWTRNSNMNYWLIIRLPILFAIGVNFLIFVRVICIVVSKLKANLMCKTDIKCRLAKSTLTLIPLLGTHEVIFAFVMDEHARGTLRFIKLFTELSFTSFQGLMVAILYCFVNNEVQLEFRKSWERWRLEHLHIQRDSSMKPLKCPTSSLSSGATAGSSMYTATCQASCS

Regarding `CCCC[C@H](NC(=O)[C@H](C)NC(=O)[C@@H](NC(=O)[C@H](CO)NC(=O)[C@H](Cc1ccc(O)cc1)NC(=O)[C@H](CC(=O)O)NC(=O)[C@H](CO)NC(=O)[C@@H](NC(=O)[C@H](Cc1ccccc1)NC(=O)[C@@H](NC(=O)CNC(=O)[C@H](CCC(=O)O)NC(=O)C(C)(C)NC(=O)[C@@H](Cc1ccc(O)cc1)NC(C)=O)[C@@H](C)O)[C@@H](C)CC)[C@@H](C)CC)C(=O)N[C@@H](CC(=O)O)C(=O)N[C@@H](CCCCN)C(=O)N[C@H](C(=O)N[C@@H](CCCNC(=N)N)C(=O)N[C@@H](CCC(N)=O)C(=O)N[C@@H](CCC(N)=O)C(=O)N[C@@H](CC(=O)O)C(=O)N[C@@H](Cc1ccccc1)C(=O)N[C@H](C(=O)N[C@@H](CCCCNC(=O)CC[C@H](NC(=O)CC[C@H](NC(=O)CC[C@H](NC(=O)CCCCCCCCCCCCCCCCC(=O)O)C(=O)O)C(=O)O)C(=O)O)C(=O)N[C@@H](Cc1c[nH]c2ccccc12)C(=O)N[C@@H](CC(C)C)C(=O)N[C@@H](CC(C)C)C(=O)N[C@@H](C)C(=O)N[C@@H](CCC(N)=O)C(=O)N[C@@H](CCCCN)C(=O)N1CCC[C@H]1C(N)=O)C(C)C)[C@@H](C)CC` [Compound 46, N{1}-acetyl,N{Epsilon-24}-[(4S)-4-carboxy-4-[[(4S)-4-carboxy-4-[[(4S)-4-carboxy-4-(17-carboxyheptadecanoylamino)butanoyl]amino]butanoyl]amino]butanoyl]-[D-Tyr1,Aib2,Nle14,Arg18,Lys24,Pro31]-hGIP(1-31) amide], the EC50 (in general, the midpoint of the concentration-response curve) at human GLP-1 receptor is above 100 nM; at human GIP receptor it was 0.0212 nM.

In the case of “Y[Aib]EGTFISDYSIALDKIHQQDFVK([AEEA-AEEA-γGlu-C18 diacid])WLLAQKGKKNDWKHNITQ [Compound 45, N{Epsilon-24}-[2-[2-[2-[[2-[2-[2-[[(4S)-4-carboxy-4-(17-carboxyheptadecanoylamino)butanoyl]amino]ethoxy]ethoxy]acetyl]amino]ethoxy]ethoxy]acetyl]-[Aib2,Leu14,Lys24]-hGIP]”, in series [1], the “Purity loss (%/month)” value amounted to 47.22 %/month. Further, the “HMWP formation (%/month)” value in series [2] is on record as 8.17 %/month. Besides, in series [3] (setting [5]), the “DLS-SI Dimensionless” value is 6.7 and the DLS-SI precipitates result is “No”. In addition, the “ThT Assay Lag time” value in series [4] is recorded as above 45 h.

Consider `CC[C@H](C)[C@H](NC(=O)[C@H](CO)NC(=O)[C@H](Cc1ccc(O)cc1)NC(=O)[C@H](CC(=O)O)NC(=O)[C@H](CO)NC(=O)[C@@H](NC(=O)[C@H](Cc1ccccc1)NC(=O)[C@@H](NC(=O)CNC(=O)[C@H](CCC(=O)O)NC(=O)[C@H](C)NC(=O)[C@@H](N)Cc1ccc(O)cc1)[C@@H](C)O)[C@@H](C)CC)C(=O)N[C@@H](C)C(=O)N[C@@H](CCSC)C(=O)N[C@@H](CC(=O)O)C(=O)N[C@@H](CCCCN)C(=O)N[C@H](C(=O)N[C@@H](Cc1c[nH]cn1)C(=O)N[C@@H](CCC(N)=O)C(=O)N[C@@H](CCC(N)=O)C(=O)N[C@@H](CC(=O)O)C(=O)N[C@@H](Cc1ccccc1)C(=O)N[C@H](C(=O)N[C@@H](CC(N)=O)C(=O)N[C@@H](Cc1c[nH]c2ccccc12)C(=O)N[C@@H](CC(C)C)C(=O)N[C@@H](CC(C)C)C(=O)N[C@@H](C)C(=O)N[C@@H](CCC(N)=O)C(=O)N[C@@H](CCCCN)C(=O)NCC(=O)O)C(C)C)[C@@H](C)CC` [hGIP(1-31), reference compound], for which the “Purity loss (%/month)” value in series [1] was 86.9 %/month. The “HMWP formation (%/month)” value in series [2] is 0.15 %/month. Also, in series [3] (concentration only 5 μM instead of 250 μM, pH 7.4, 25° C.), the DLS-SI precipitates result is listed as “visible as precipitation; also recorded: Yes^##”. For the same molecule, the “ThT Assay Lag time” value in series [4] is recorded as 0 h. Besides, the 50% effective concentration (EC50) on human GIP receptor is 0.00224 nM.

The values above are taken from patent US10604555B2, “GIP derivatives and uses thereof” (priority 2018, dated 2020).
